Reference: patent US20250018052A1, “ANTI-HER3 ANTIBODY DRUG CONJUGATE, COMPOSITION THEREOF, AND USE THEREOF” (CHIA TAI TIANQING PHARMACEUTICAL GROUP CO., LTD., priority 2021, published 2025)

Experiments:
[1] = test system: BT474 cells with high HER3 expression level; test: Cell killing activity (CellTiter-Glo), BT474; format: cell-based; conditions: cultured for 96 h, 120 h, or 144 h
Protocol: (§1) Cells in the logarithmic growth phase were added to a 96-well plate at 100 μL/well, and the cell density was 1×10^4/mL or […]. Adherence culture was carried out at 37° C. and 5% CO2 overnight. Sample preparation: the patritumab-eribulin conjugates were each formulated into test samples with a basal medium containing 10% FBS (initial concentration of 5 μg/mL, 5-fold gradient dilution, nine gradients). Cells subjected to overnight adherence culture were taken out. For the experimental groups, the diluted test sample was added at 50 μL/well, and for the control group, the basal medium containing 10% FBS was added at 50 µL/well. The cells were then cultured for 96 h, 120 h, or 144 h, and then a CellTiter-Glo Luminescent Cell kit (Promega, Cat No.: G7572) was used for assay. The 96-well plate was taken out, the CTG detection solution (Promega. Cat No.: G7572) was added at 75 μL/well, and the mixture was well mixed by shaking and incubated at room temperature in the dark for 10 min. Then 180 μL of solution was pipetted from each well and transferred to an opaque white plate, bubbles were removed, chemiluminescence values were read, and killing rates were calculated.
(§2) Data were analyzed using Graphpad Prism5.

[2] = test system: HCC1569 cells with high HER3 expression level; test: Cell killing activity (CellTiter-Glo), HCC1569; format: cell-based; conditions: cultured for 96 h, 120 h, or 144 h
Protocol: as §1, §2

[3] = test system: SKBR3 cells with medium HER3 expression level; test: Cell killing activity (CellTiter-Glo), SKBR3; format: cell-based; conditions: cultured for 96 h, 120 h, or 144 h
Protocol: as §1, §2

[4] = test system: NCI-N87 cells with medium HER3 expression level; test: Cell killing activity (CellTiter-Glo), NCI-N87; format: cell-based; conditions: cultured for 96 h, 120 h, or 144 h
Protocol: as §1, §2

[5] = test system: JIMT-1 human breast cancer cells; test: Nude mouse subcutaneous xenograft tumor model of JIMT-1 human breast cancer cells; format: in vivo, nude mice; conditions: 3 mg/kg, tail vein injection, Q1W, d21; for Tumor growth inhibition rate 1-T/C: from relative tumor volume; for Tumor inhibition rate TGI: from tumor weight
Protocol: The in vivo efficacy of the patritumab-eribulin conjugates prepared in Example 4 above was evaluated by the nude mouse subcutaneous xenograft tumor models of JIMT-1 human breast cancer cells, a trastuzumab-resistant cell strain.
SPF-grade female nude mice (from Changzhou Cavens Laboratory Animal Ltd.) were inoculated subcutaneously at the right side armpit with 2×10^6 JIMT-1 cells per mouse. When the mean tumor volume reached […], the animals were divided into 5 groups of 6, and the specific grouping and administration regimen are shown in Table 6.
The day of grouping was do, and the tail vein administration was performed at d1 after grouping. The tumor volume was measured 2-3 times a week, and meanwhile, the mice were weighed and the data were recorded; the general behavior of the mice was observed and recorded every day. After the experiment was completed, the tumors were removed, weighed, and photographed.

[6] = test system: MCF-7 cells with high HER3 expression level; test: Cell killing activity (CellTiter-Glo), MCF-7; format: cell-based; conditions: cultured for 96 h, 120 h, or 144 h
Protocol: as §1, §2

[7] = test system: JIMT-1 cells with medium HER3 expression level; test: Cell killing activity (CellTiter-Glo), JIMT-1; format: cell-based, human; conditions: cultured for 96 h, 120 h, or 144 h
Protocol: as §1, §2

[8] = test system: MDA-MB-468 cells with medium HER3 expression level; test: Cell killing activity (CellTiter-Glo), MDA-MB-468; format: cell-based; conditions: cultured for 96 h, 120 h, or 144 h
Protocol: as §1, §2

Row | Substance | EC50 [1] [nM] | EC50 [2] [nM] | EC50 [3] [nM] | EC50 [4] [nM] | Tumor growth inhibition rate 1-T/C [5] [%] | Tumor inhibition rate TGI [5] [%] | EC50 [6] [nM] | EC50 [7] [nM] | EC50 [8] [nM]
1 | Patritumab-DDDXd-D8: patritumab-DDDXd conjugate (MC-GGFG-DDDXd, deuterated MC-GGFG-DXd) with a DAR of 7.9, used as control [reference compound] | 10.4 | 18.3 | 57.9 | 0.371 | 24.4 | 26.6 | – | – | –
2 | Patritumab-eribulin-D8: patritumab-eribulin conjugate (MC-GGFG-eribulin linker-payload) with a DAR of 7.6 | 0.0181 | 0.246 | 0.0232 | 0.691 | 82.9 | 84.3 | 0.0361 | 0.946 | 0.321
3 | Patritumab-eribulin-D4: patritumab-eribulin conjugate (MC-GGFG-eribulin linker-payload) with DAR of 4.0-4.2 | 0.0398 | 0.778 | 0.043 | 13.9 | 65.9 | 68.9 | 0.0994 | 3.27 | 1.41
4 | Patritumab-eribulin-D2: patritumab-eribulin conjugate (MC-GGFG-eribulin linker-payload) with a DAR of 2.6 | 0.0935 | 3.6 | 0.194 | – | 36.6 | 41.1 | 1.17 | 10.5 | 12.1
